According to PubChem BioAssay (NCI):
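Compound exposure: 48 hours, 5 concentrations, 96-well plates. Abbreviation: GI50, concentration required for 50% inhibition of growth. TGI denotes the concentration required for complete inhibition of growth.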

Experiments:
Test in all cases: growth of human tumour cells (NCI), 48 h
[1] = test system: UACC-62 melanoma
[2] = test system: OVCAR-4 ovarian
[3] = test system: SF-295 CNS
[4] = test system: SNB-75 CNS
[5] = test system: SF-268 CNS
[6] = test system: UO-31 renal
[7] = test system: NCI-H522 lung
[8] = test system: M14 melanoma
[9] = test system: HL-60(TB) leukemia
[10] = test system: SNB-19 CNS
[11] = test system: OVCAR-3 ovarian
[12] = test system: SK-MEL-28 melanoma
[13] = test system: SF-539 CNS
[14] = test system: EKVX NSCLC
[15] = test system: UACC-257 melanoma
[16] = test system: NCI-H226 lung
[17] = test system: CCRF-CEM leukemia
[18] = test system: OVCAR-5 ovarian
[19] = test system: RXF 393 renal
[20] = test system: A498 renal
[21] = test system: SK-MEL-5 melanoma
[22] = test system: PC-3 prostate
[23] = test system: A549 NSCLC
[24] = test system: SW-620 colon
[25] = test system: HS 578T breast
[26] = test system: OVCAR-8 ovarian
[27] = test system: NCI-H460 lung
[28] = test system: HCT-15 colon
[29] = test system: SN12C renal

**Q.** For `CC(=O)OCCC/C(=C/c1cc2ccccc2c2ccccc12)[N+](=O)[O-]`, which GI50 [1] is on record?
**A.** Its GI50 is 1540 nM.

**Q.** What about the TGI [1] of the same compound?
**A.** The TGI was 3100 nM.

**Q.** And the GI50 [2]?
**A.** Its GI50 is 1750 nM.

**Q.** What about the TGI [2] of the same compound?
**A.** The TGI was 3290 nM.

**Q.** What about the GI50 [3] of the same compound?
**A.** Its GI50 is 977 nM.

**Q.** What about the TGI [3] of the same compound?
**A.** The TGI was 2320 nM.

**Q.** What about the GI50 [4] of the same compound?
**A.** Its GI50 is 606 nM.

**Q.** What about the TGI [4] of the same compound?
**A.** Its TGI is 2170 nM.

**Q.** What about the GI50 [5] of the same compound?
**A.** Its GI50 is 1470 nM.

**Q.** And the TGI [5]?
**A.** The TGI was 2890 nM.

**Q.** What about the GI50 [6] of the same compound?
**A.** The GI50 was 1090 nM.

**Q.** And the TGI [6]?
**A.** Its TGI is 2300 nM.

**Q.** What about the GI50 [7] of the same compound?
**A.** Its GI50 is 252 nM.

**Q.** And the TGI [7]?
**A.** Its TGI is 981 nM.

**Q.** And the GI50 [8]?
**A.** Its GI50 is 1560 nM.

**Q.** And the TGI [8]?
**A.** The TGI was 2900 nM.

**Q.** What about the GI50 [9] of the same compound?
**A.** Its GI50 is 1430 nM.

**Q.** What about the TGI [9] of the same compound?
**A.** Its TGI is 4570 nM.

**Q.** And the GI50 [10]?
**A.** The GI50 was 1660 nM.

**Q.** And the TGI [10]?
**A.** The TGI was 3220 nM.

**Q.** What about the GI50 [11] of the same compound?
**A.** Its GI50 is 814 nM.

**Q.** And the TGI [11]?
**A.** The TGI was 2130 nM.

**Q.** And the GI50 [12]?
**A.** The GI50 was 1640 nM.

**Q.** What about the TGI [12] of the same compound?
**A.** The TGI was 2990 nM.

**Q.** And the GI50 [13]?
**A.** The GI50 was 1530 nM.

**Q.** What about the TGI [13] of the same compound?
**A.** Its TGI is 2860 nM.

**Q.** What about the GI50 [14] of the same compound?
**A.** The GI50 was 1420 nM.

**Q.** And the TGI [14]?
**A.** Its TGI is 3670 nM.

**Q.** And the GI50 [15]?
**A.** Its GI50 is 1430 nM.

**Q.** And the TGI [15]?
**A.** The TGI was 2760 nM.

**Q.** What about the GI50 [16] of the same compound?
**A.** Its GI50 is 2040 nM.

**Q.** And the TGI [16]?
**A.** Its TGI is 5630 nM.

**Q.** What about the GI50 [17] of the same compound?
**A.** The GI50 was 2520 nM.

**Q.** And the TGI [17]?
**A.** The TGI was over 25300 nM.

**Q.** What about the GI50 [18] of the same compound?
**A.** The GI50 was 1680 nM.

**Q.** And the TGI [18]?
**A.** The TGI was 3110 nM.

**Q.** What about the GI50 [19] of the same compound?
**A.** The GI50 was 1400 nM.

**Q.** And the TGI [19]?
**A.** The TGI was 2910 nM.

**Q.** What about the GI50 [20] of the same compound?
**A.** Its GI50 is 1380 nM.

**Q.** And the TGI [20]?
**A.** Its TGI is 2720 nM.

**Q.** And the GI50 [21]?
**A.** Its GI50 is 1610 nM.

**Q.** And the TGI [21]?
**A.** Its TGI is 2960 nM.

**Q.** What about the GI50 [22] of the same compound?
**A.** Its GI50 is 1890 nM.

**Q.** What about the TGI [22] of the same compound?
**A.** The TGI was 3940 nM.

**Q.** What about the GI50 [23] of the same compound?
**A.** The GI50 was 1840 nM.

**Q.** What about the TGI [23] of the same compound?
**A.** The TGI was 3740 nM.

**Q.** What about the GI50 [24] of the same compound?
**A.** The GI50 was 1490 nM.

**Q.** What about the TGI [24] of the same compound?
**A.** The TGI was 2810 nM.

**Q.** And the GI50 [25]?
**A.** Its GI50 is 2470 nM.

**Q.** And the TGI [25]?
**A.** Its TGI is over 23100 nM.

**Q.** What about the GI50 [26] of the same compound?
**A.** The GI50 was 1610 nM.

**Q.** What about the TGI [26] of the same compound?
**A.** Its TGI is 3210 nM.

**Q.** What about the GI50 [27] of the same compound?
**A.** Its GI50 is 1710 nM.

**Q.** What about the TGI [27] of the same compound?
**A.** The TGI was 3140 nM.

**Q.** What about the GI50 [28] of the same compound?
**A.** The GI50 was 1300 nM.

**Q.** And the TGI [28]?
**A.** Its TGI is 2620 nM.

**Q.** What about the GI50 [29] of the same compound?
**A.** Its GI50 is 1750 nM.

**Q.** What about the TGI [29] of the same compound?
**A.** Its TGI is 3750 nM.
